Results published in US20250162989A1, “USP30 INHIBITORS AND USES THEREOF” (Vincere Biosciences, Inc., priority 2021, published 2025).

Target: recombinant USP30 (amino acids 57-517 of the human sequence) (Homo sapiens (Human), UniProt Q70CQ3)
Experiment: In vitro USP30 biochemical assay (Ubiquitin-Rhodamine substrate)
Conditions: fluorescence
Experimental: In vitro biochemical assay to establish the potency of compounds for USP30 inhibition: a 384-well plate assay using a fluorophore tagged substrate of USP30 was used for in vitro screening of compounds. Each compound was tested at
10 different concentrations (0.5 to 10,000 nM) in duplicate wells. […] Data were analyzed using Graph Pad Prism software with a four-parameter (floating slope) fit to log concentration data to determine IC50s.

[1] = 1.5 nM recombinant USP30, 25 nM Ubiquitin-Rhodamine
[2] = […] recombinant USP30, 25 nM Ubiquitin-Rhodamine

recombinant USP30 (amino acids 57-517 of the human sequence), sequence (Q70CQ3 57-517): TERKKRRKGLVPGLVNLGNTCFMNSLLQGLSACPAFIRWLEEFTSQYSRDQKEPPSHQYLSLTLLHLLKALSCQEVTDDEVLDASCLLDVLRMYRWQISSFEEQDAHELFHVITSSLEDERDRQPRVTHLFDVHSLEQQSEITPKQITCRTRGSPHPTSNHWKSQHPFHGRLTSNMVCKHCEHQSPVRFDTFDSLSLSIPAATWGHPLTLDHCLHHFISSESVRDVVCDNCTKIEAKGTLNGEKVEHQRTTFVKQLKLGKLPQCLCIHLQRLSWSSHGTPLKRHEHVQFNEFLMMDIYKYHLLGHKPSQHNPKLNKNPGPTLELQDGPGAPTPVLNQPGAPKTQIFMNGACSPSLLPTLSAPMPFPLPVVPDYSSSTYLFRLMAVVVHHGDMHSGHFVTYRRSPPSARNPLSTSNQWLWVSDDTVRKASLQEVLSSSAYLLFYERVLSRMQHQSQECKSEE

Row | SMILES | IC50 [1] [µM] | IC50 [2] [µM]
1 | CC(C)(C)NS(=O)(=O)c1ccc(NC(=O)[C@H](CC2CCNCC2)NC(=O)N2CCOCC2)cc1 [Compound I-215] | 1 to 10 | –
2 | COc1cc(NC(=O)[C@H](CC(C)C)NC(=O)c2ccc(F)cc2)ccc1S(=O)(=O)NC(C)(C)C [Compound I-13] | 0.05 to 1 | –
3 | CN1CCC(C[C@H](NC(=O)N2CCOCC2)C(=O)Nc2ccc(S(=O)(=O)NC(C)(C)C)cc2)CC1 [Compound I-217] | 1 to 10 | –
4 | COCCC(C)(C)NS(=O)(=O)c1ccc(NC(=O)[C@H](CC(C)C)NC(=O)c2ccc(F)cc2)cc1 [Compound I-18] | 0.05 to 1 | –
5 | COc1cc(NC(=O)[C@H](CC(C)C)NC(=O)c2ccc(F)cc2)cnc1S(=O)(=O)NC(C)(C)C [Compound I-15] | 0.05 to 1 | –
6 | CC(C)[C@H](NC(=O)c1ccc(F)cc1)C(=O)Nc1ccc(S(=O)(=O)NC(C)(C)C)cc1 [Compound I-206] | 0.05 to 1 | –
7 | COc1cc(NC(=O)[C@H](CC2CCOCC2)NC(=O)c2ccc(F)cc2)cnc1S(=O)(=O)NC1CCN(C)CC1 [Compound I-83] | 1 to 10 | –
8 | CC(C)(CN1CCOCC1)NS(=O)(=O)c1ccc(NC(=O)[C@H](CC2CC2)NC(=O)c2ccc(F)cc2)cc1 [Compound I-47] | 0.05 to 1 | –
9 | O=C(N[C@@H](Cc1ccccc1)C(=O)Nc1ccc(S(=O)(=O)NCc2ncccn2)cc1)c1ccc(F)cc1 [Compound I-228] | 0.05 to 1 | –
10 | CN1CCN(C(=O)N[C@@H](CC2CCNCC2)C(=O)Nc2ccc(S(=O)(=O)NC(C)(C)C)cc2)CC1 [Compound I-219] | – | > 10
11 | CO[C@H]1C[C@@H](C(=O)Nc2ccc(S(=O)(=O)N[C@@H]3CCOC3)cc2)N(C(=O)c2ccc(F)cc2)C1 [Compound I-288] | – | > 10
12 | CC(C)(CO)NS(=O)(=O)c1ccc(NC(=O)[C@H](CCO)NC(=O)c2ccc(F)cc2)cc1 [Compound I-29] | 1 to 10 | –
13 | CC(C)(C)C[C@H](NC(=O)c1ccc(F)cc1)C(=O)Nc1ccc(S(=O)(=O)NC(C)(C)C)cc1 [Compound I-25] | 0.05 to 1 | –
14 | O=C(N[C@@H](Cc1ccccc1)C(=O)Nc1ccc(S(=O)(=O)NCc2ccn[nH]2)cc1)c1ccc(F)cc1 [Compound I-226] | 0.05 to 1 | –
15 | CC(C)C[C@H](NC(=O)c1ccc(F)cc1)C(=O)NC1CN(C(=O)OCc2ccccc2)C1 [Compound I-248] | – | > 10
16 | CC(C)(C)NS(=O)(=O)c1ccc(NC(=O)[C@H](Cc2ccccc2)NC(=O)C2CCN(C#N)CC2)cc1 [Compound I-233] | 0.05 to 1 | –
17 | CO[C@@H]1C[C@@H](C(=O)Nc2ccc(S(=O)(=O)NC3COC3)cc2)N(C(=O)c2ccc(F)cc2)C1 [Compound I-278] | – | > 10
18 | CC(C)(C)NS(=O)(=O)N1CCC(NC(=O)[C@H](Cc2ccccc2)NC(=O)c2ccc(F)cc2)CC1 [Compound I-58, (S)—N-(1-((1-(N-(tert-butyl)sulfamoyl)piperidin-4-yl)amino)-1-oxo-3-phenylpropan-2-yl)-4-fluorobenzamide] | 1 to 10 | –
19 | CC(C)(C)NS(=O)(=O)c1ccc(NC(=O)[C@@H]2C[C@H](O)CN2C(=O)c2ccc(F)cc2)cc1 [Compound I-279] | 1 to 10 | –
20 | CC(C)(C)NS(=O)(=O)c1ccc(NC(=O)[C@H](CC#N)NC(=O)c2ccc(F)cc2)cc1 [Compound I-243] | 0.05 to 1 | –
21 | CC(C)(C)NS(=O)(=O)c1ccc(NC(=O)[C@H](CCO)NC(=O)c2ccc(F)cc2)cc1 [Compound I-242] | 0.05 to 1 | –
22 | COC[C@H](NC(=O)c1ccc(F)cc1)C(=O)Nc1ccc(S(=O)(=O)NC2COC2)cc1 [Compound I-34] | 1 to 10 | –
23 | COc1cc(NC(=O)[C@H](CC2CCN(C)CC2)NC(=O)c2ccc(F)cc2)ccc1S(=O)(=O)N[C@@H]1CCOC1 [Compound I-95] | 0.05 to 1 | –
24 | CC(C)C[C@H](NC(=O)c1ccc(F)cc1)C(=O)Nc1ccc(S(=O)(=O)NC(C)(C)CF)cc1 [Compound I-230] | 0.05 to 1 | –
25 | CC(C)(CO)NS(=O)(=O)c1ccc(NC(=O)[C@H](CC2CC2)NC(=O)c2ccc(F)cc2)cc1 [Compound I-46] | 0.05 to 1 | –
26 | O=C(Nc1ccc(S(=O)(=O)NC2COC2)cc1)[C@@H]1C[C@H](O)CN1C(=O)c1ccc(F)cc1 [Compound I-281] | – | > 10
